Source: patent US7427626B2, “2-Anilino-4-(imidazol-5-yl)-pyrimidine derivatives and their use as cdk (cdk2) inhibitors” (AstraZeneca AB, priority 2003, dated 2008)

Biological target: T1, CDK2/Cyclin E (Homo sapiens, UniProt P24941)
T1 construct: The open reading frames of CDK2 and Cyclin E were isolated; made in house; host or cells: Spodoptera frugiperda SF21 insect cells with baculovirus co-infection (CDK2 and cyclin E); E. coli BL21 (DE3) pLysS (GST-Rb substrate)
Assay: in vitro kinase assay, Scintillation Proximity Assay, incorporation of [γ-33-P]-ATP into GST-Rb
Format: biochemical
Details: CDK2/Cyclin E partially-purified enzyme, GST-Rb substrate, 0.2 μM ATP, 60 minutes at room temperature
Experimental: The compounds were tested in an in vitro kinase assay in 96 well format using Scintillation Proximity Assay (SPA—obtained from Amersham) for measuring incorporation of [γ-33-P]-Adenosine Triphosphate into a test substrate (GST-Retinoblastoma protein; GST-Rb). In each well was placed the compound to be tested (diluted in DMSO and water to correct concentrations) and in control wells either roscovitine as an inhibitor control or DMSO as a […] control.
Approximately 0.2 μl of CDK2/Cyclin E partially-purified enzyme (amount dependent on enzyme activity) diluted in 25 μl incubation buffer was added to each well then 20 μl of GST-Rb/ATP/ATP33 mixture (containing 0.5 μg GST-Rb and 0.2 μM ATP and 0.14 μCi [γ-33-P]-Adenosine Triphosphate in incubation buffer), and the resulting mixture shaken gently, then incubated at room temperature for 60 minutes.
To each well was then added 150 μL stop solution containing (0.8 mg/well of Protein A-PVT SPA bead (Amersham)), 20 pM/well of Anti-Glutathione Transferase, Rabbit IgG (obtained from Molecular Probes), 61 mM EDTA and 50 mM HEPES pH 7.5 containing 0.05% sodium azide.
The plates were sealed with Topseal-S plate sealers, left for two hours then spun at 2500 rpm, 1124 xg., for 5 minutes. The plates were read on a Topcount for 30 seconds per well. […]
E. coli paste was resuspended in 10 ml/g of NETN buffer (50 mM Tris pH 7.5, 120 mM NaCl, 1 mM EDTA, 0.5% v/v NP-40, 1 mM PMSF, 1 ug/ml leupeptin, 1 μg/ml aprotinin and 1 ug/ml pepstatin) and sonicated for 2×45 seconds per 100 ml homogenate. […] The final product was analysed by Sodium Dodeca Sulfate (SDS) PAGE (Polyacrylamide gel) using 8-16% Tris-Glycine gels (Novex, San Diego, USA).
The open reading frames of CDK2 and Cyclin E were isolated by reverse transcriptase-PCR using HeLa cell and activated T cell mRNA as a template and cloned into the insect expression vector pVL1393 (obtained from Invitrogen 1995 catalogue number: V1392-20). […]

CC(C)n1c(-c2ccnc(Nc3ccccc3)n2)cnc1C(=O)c1ccccc1 [Example 6, 2-Anilino4(2-benzoyl-1-isopropylimidazol-5-yl)pyrimidine]
IC50: 65 nM

CC(C)n1c(-c2ccnc(Nc3ccccc3)n2)cnc1C(=O)c1ccncc1 [Example 8, 2-Anilino-4-[2-(pyridin-4-ylcarbonyl)-1-isopropylimidazol-5-yl]pyrimidine]
IC50: 4 nM

CC(C)n1c(-c2ccnc(Nc3ccccc3)n2)cnc1C(=O)CCc1ccccc1 [Example 9, 2-Anilino-4-[2-(3-phenylpropionyl)-1-isopropylimidazol-5-yl]pyrimidine]
IC50: 64 nM
